According to article PMC7728077, “Double-Headed Cationic Lipopeptides: An Emerging Class of Antimicrobials” (International Journal of Molecular Sciences, 2020):
Peptide text beside a SMILES is read from it. * marks the point of attachment. Palmitoyl = CCCCCCCCCCCCCCCC(=O)*

What was measured:
[1] = NMR DOSY, 700 MHz
Description: NMR spectra were recorded on a Bruker AVANCE III 700 MHz spectrometer. The size of lipopeptide assemblies was determined by an NMR method measuring the self-diffusion coefficient (DOSY experiments). The lipopeptide self-diffusion coefficient, D, was measured by attenuation of the spin-echo signal intensity (I) as a function of gradient amplitude (g), expressed by the Stejskal–Tanner formula, I = I0exp[−Dg^2γ^2 δ^2(∆ − δ/3)] [39], where I0 is the echo intensity in the absence of the field gradient pulse, γ = 2.675 × 10^8 rad T^−1 s^−1 is the gyromagnetic ratio of the ^1H nucleus, δ is the duration of the field gradient pulse, and ∆ is the time period between two field gradient pulses. […] The spectra were processed and analyzed using Topspin 3.2 (Bruker, Billerica, MA, USA).

[2] = test system: lipopolysaccharide (LPS) E. coli 055:B5; assay: Isothermal titration calorimetry, binding to LPS; conditions: ITC, two sets of sites model
Description: Isothermal titration calorimetry (ITC) experiments were carried out at 298.15 K using an AutoITC isothermal titration calorimeter (MicroCal Inc., GE Healthcare, Northampton, MA, USA) equipped with a 1.4491 mL sample cell and a reference cell. A typical ITC experiment involved a series of consecutive injections of 10.02 µL aliquots of the titrant (2 µL for the first injection only) into the reaction cell, at an interval of 4 min. The stirrer speed was constantly kept at 300 rpm to provide thorough mixing inside the reaction cell. Three types of ITC experiments were performed. These included lipopeptides binding to POPG, POPC, and LPS. […] Final results were evaluated with an ITC module for ORIGIN 7 software, provided by MicroCal, Inc. (Northampton, MA, USA). The binding constant, stoichiometry, and enthalpy of interactions were directly determined from ITC experiment by fitting one of the built-in curve fitting models to the experimental data points. Changes in entropy (∆S°) and the Gibbs free energy (∆G°) were calculated from the following equation: ∆G^°=−RTln(55.5Ka)=∆H^°−T∆S^° where 55.5 is the molar concentration of water, R is the gas constant (1.986 cal·mol^−1·K^−1), and T is the absolute temperature.

[3] = test system: E. coli; assay: LIVE/DEAD SYTO9/PI bacterial viability staining, fluorescence microscopy; type: cell-based, Escherichia coli; conditions: 4, 8 and 16 µg/mL (1×, 2×, 4× MIC); at least two independent replicates
Description: Bacteria were inoculated in the Luria–Bertani medium and cultured with shaking at 37 °C up to the early exponential phase (A600 = 0.1). Then, 1.5 mL of the cultures were transferred to 5 mL Eppendorf tubes and treated with suitable peptides added at concentrations of 1×, 2×, or 4× MIC. For the negative control, bacteria were treated with a pure vehicle (water). Next, the cells were cultured for 1 or 2 h, as indicated. To obtain a positive control, at the end of the incubation, one portion of bacteria was collected and suspended in 200 µL of 70% ethanol for 5 min. After incubation, bacteria were collected by centrifugation (10 min, 3000× g) and washed twice with 0.85% NaCl. To determine membrane integrity, bacteria were stained with a LIVE/DEAD™ BacLight™ Bacterial Viability Kit (Thermo Fisher Scientific, Waltham, MA, USA) containing two dyes, i.e., a bacterial membrane permeable SYTO9 (green fluorescence) and an impermeable propidium iodide (red fluorescence) that stains only bacteria with damaged membrane. The staining was performed according to the manufacturer instructions. Then, bacteria were collected by centrifugation and washed twice with 0.85% NaCl. Bacteria pellets were suspended in 10 µL of 0.85% NaCl. Next, 3 µL of each suspension were spotted on agarose pads, covered with coverslips and immediately imaged using fluorescence microscope (Leica DMI4000B) with 100× objective. […]

Row | SMILES | first breakpoint of self-diffusion coefficient vs. concentration (premicellar state) [1] | second breakpoint of self-diffusion coefficient vs. concentration (micellar state) [1] | pKITC1, LPS E. coli 055:B5 ([2]; site 1) | pKITC2, LPS E. coli 055:B5 ([2]; site 2) | membrane integrity of E. coli cells (SYTO9/PI staining) [3]
1 | CCCCCCCCCCCCCCCC(=O)NCCC[C@H](NC(=O)[C@@H](N)CCCCN)C(=O)N[C@@H](CCCCN)C(N)=O [K(OC16)K-NH2] | around 6 mM | around 9 mM |  |  | 
2 | CCCCCCCCCCCCCCCC(=O)NCCCC[C@H](NC(=O)[C@H](CCCCN)NC(=O)[C@@H](N)CCCCN)C(=O)N[C@@H](CCCCN)C(=O)N[C@@H](CCCCN)C(N)=O [KK(KC16)KK-NH2] (H-KKK(Palmitoyl)KK-NH2) |  |  | 7.67 ± 0.29 | 6.38 ± 0.14 | smaller number of red-stained cells than in the case of S. epidermidis
